Starred links: 1 amine or outer side, 2 acyl side, 3 side chain; linkers in the order of their positions; H or OH if unused. Positions of bridges follow the written chain, without caps; N, C: chain ends. Non-standard residues stand in square brackets, D forms with d. Residues, ends and D or L forms follow the SMILES beside them. *: point of attachment. hPhe(3,5-F2-4-CF3) = N[C@@H](CCc1cc(F)c(C(F)(F)F)c(F)c1)C(=O)O; hPhe(3-Cl-4-CF3) = N[C@@H](CCc1ccc(C(F)(F)F)c(Cl)c1)C(=O)O; hPhe(4-CF3) = N[C@@H](CCc1ccc(C(F)(F)F)cc1)C(=O)O; NMePhe(4-Cl) = CN[C@@H](Cc1ccc(Cl)cc1)C(=O)O; NMePhe(4-Me) = CN[C@@H](Cc1ccc(C)cc1)C(=O)O; NMedβ3hAla = C[C@H](CC(=O)[*:2])N(C)[*:1]; NMePhe(2-F) = CN[C@@H](Cc1ccccc1F)C(=O)O; NMeGly(cPent) = CN[C@H](C(=O)O)C1CCCC1; Phe(3-I) = N[C@@H](Cc1cccc(I)c1)C(=O)O; X70 = CC(C)(O)COCCN(CC(=O)[*:2])[*:1]; NMeCha = CN[C@@H](CC1CCCCC1)C(=O)O; Pro(4-oxo) = O=C1CN[C@H](C(=O)O)C1; NMeI = CC[C@H](C)[C@H](NC)C(=O)O; dNMeF = CN[C@H](Cc1ccccc1)C(=O)O; NMeD = CN[C@@H](CC(=O)O)C(=O)O; CH2CONHtBu = CC(C)(C)NC(=O)C*; NMeL = CN[C@@H](CC(C)C)C(=O)O; NMeV = CN[C@H](C(=O)O)C(C)C; d(β3hA) = C[C@@H](N)CC(=O)O; NMeS = CN[C@@H](CO)C(=O)O; NMeA = CN[C@@H](C)C(=O)O; NMeAib = CNC(C)(C)C(=O)O; Piperidide = C1CCN(*)CC1; Pyrrolidide = C1CCN(*)C1; dNMeA = CN[C@H](C)C(=O)O; Ac5c = NC1(C(=O)O)CCCC1; Aze = O=C(O)[C@@H]1CCN1; Sar = CNCC(=O)O; Propyl = CCC*
These compounds were tested against T1, Kras and SOS1 (biotin-tagged human Kras loaded with GDP, His-tagged human SOS1) (Homo sapiens, UniProt P01116, G12D) (assay: Protein-protein interaction inhibition between Kras and SOS1 (KrasGl2D-SOS PPI) using AlphaScreen). Conditions: AlphaScreen; biotin-tagged human Kras loaded with GDP, His-tagged human SOS1; read-out: KRAS G12D-SOS PPI IC50.
T1 construct: made in house; host or cells: E. coli (stated for Kras only)
T1 sequence (P01116 1-188 isoform P01116-2 G12D): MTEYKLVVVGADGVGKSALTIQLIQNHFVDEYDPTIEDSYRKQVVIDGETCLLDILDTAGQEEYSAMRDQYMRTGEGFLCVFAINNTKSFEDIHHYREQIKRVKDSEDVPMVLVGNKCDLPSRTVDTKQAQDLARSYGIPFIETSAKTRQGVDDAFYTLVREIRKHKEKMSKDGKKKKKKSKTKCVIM
Type: binding
Procedure, shortened: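 Read-out is acceptor-bead light at 520-620 nm, arising when 680 nm-irradiated nickel donor beads pass singlet oxygen to streptavidin acceptors. The bead pair links His-tagged SOS1 with biotin-tagged, GDP-bound Kras from E. coli.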

Structure (SMILES) | IC50 [nM]
CC[C@H](C)[C@@H]1NC(=O)[C@H](C)N(C)C(=O)C[C@@H](C)NC(=O)[C@H](C(C)C)N(C)C(=O)C2(CCCC2)NC(=O)[C@@H]2CCCN2C(=O)[C@H](CCc2ccc(C(F)(F)F)c(Cl)c2)NC(=O)CN(C)C(=O)[C@H](CC2CCCCC2)N(C)C(=O)CN(C)C(=O)CN(C)C1=O [Compound 697] (cyclo([Ac5c][NMeV][d(β3hA)][NMeA]I[Sar][Sar][NMeCha][Sar][hPhe(3-Cl-4-CF3)]P)) | 12
CC[C@H](C)[C@@H]1NC(=O)[C@H](CC(C)C)N(C)C(=O)C[C@@H](C(=O)N2CCCCC2)N(C)C(=O)[C@H](CC(C)C)NC(=O)C(C)(C)N(C)C(=O)[C@H](Cc2ccc(OC)cc2)NC(=O)[C@H](Cc2cccc(I)c2)NC(=O)CN(C)C(=O)[C@H](Cc2ccc(C)cc2)N(C)C(=O)[C@@H]2CCN2C(=O)CN(C)C1=O [Compound 188] ([NMeL]I[Sar][Aze][NMePhe(4-Me)][Sar][Phe(3-I)]Y(Me)[NMeAib]L[NMeD]-Piperidide; lactam N-11) | 6.1
CC[C@H](C)[C@@H]1NC(=O)[C@H](C)N(C)C(=O)C[C@@H](C(=O)N2CCCCC2)N(C)C(=O)[C@H]([C@@H](C)CC)N(C)C(=O)C2(CCCC2)NC(=O)[C@@H](Cc2ccccc2)N(C)C(=O)[C@H](CCc2ccc(C(F)(F)F)c(Cl)c2)NC(=O)CN(C)C(=O)[C@H](Cc2ccc(C)cc2)N(C)C(=O)[C@@H]2CCN2C(=O)[C@H](C)N(C)C1=O [Compound 1997] ([NMeA]I[NMeA][Aze][NMePhe(4-Me)][Sar][hPhe(3-Cl-4-CF3)][dNMeF][Ac5c][NMeI][NMeD]-Piperidide; lactam N-11) | 220
CC[C@H](C)[C@@H]1NC(=O)[C@H](C)N(C)C(=O)C[C@@H](C)NC(=O)[C@H](C2CCCC2)N(C)C(=O)C2(CCCC2)NC(=O)[C@@H]2CCCN2C(=O)[C@H](CCc2ccc(C(F)(F)F)c(Cl)c2)NC(=O)CN(C)C(=O)[C@H](Cc2ccccc2F)N(C)C(=O)[C@@H]2CCCN2C(=O)CN(C)C1=O [Compound 1077] (cyclo([Ac5c][NMeGly(cPent)][d(β3hA)][NMeA]I[Sar]P[NMePhe(2-F)][Sar][hPhe(3-Cl-4-CF3)]P)) | 34
CC[C@H](C)[C@@H]1NC(=O)[C@H](CC(C)C)N(C)C(=O)C[C@@H](C(=O)N2CCCC2)N(C)C(=O)[C@H](C2CCCC2)N(C)C(=O)C2(CCCC2)NC(=O)[C@@H]2CCCN2C(=O)[C@H](CCc2cc(F)c(C(F)(F)F)c(F)c2)NC(=O)CN(C)C(=O)[C@H](CC2CCCCC2)N(C)C(=O)CN(C)C(=O)CN(C)C1=O [Compound 1342] ([NMeL]I[Sar][Sar][NMeCha][Sar][hPhe(3,5-F2-4-CF3)]P[Ac5c][NMeGly(cPent)][NMeD]-Pyrrolidide; lactam N-11) | 0.53
CC[C@H](C)[C@@H]1NC(=O)[C@H](CC(C)C)N(C)C(=O)C[C@@H](C(=O)N2CCCCC2)N(C)C(=O)[C@H](C(C)C)N(C)C(=O)C2(CCCC2)NC(=O)[C@@H]2CC(=O)CN2C(=O)[C@H](CCc2ccc(C(F)(F)F)c(Cl)c2)NC(=O)CN(C)C(=O)[C@H](CC2CCCCC2)N(C)C(=O)[C@@H]2CCN2C(=O)[C@H](C)N(C)C1=O [Compound 1819] ([NMeL]I[NMeA][Aze][NMeCha][Sar][hPhe(3-Cl-4-CF3)][Pro(4-oxo)][Ac5c][NMeV][NMeD]-Piperidide; lactam N-11) | 3.8
CC[C@H](C)[C@@H]1NC(=O)[C@H](CC(C)C)N(C)C(=O)C[C@@H](C)N(C)C(=O)[C@H](CC(C)C)NC(=O)C(C)(C)N(C)C(=O)[C@H](CC(C)C)NC(=O)[C@H](CCc2ccc(C(F)(F)F)c(Cl)c2)NC(=O)CN(C)C(=O)[C@H](CC2CCCCC2)N(C)C(=O)[C@@H]2CCN2C(=O)[C@H](C)N(C)C1=O [Compound 886] (cyclo([Aze][NMeCha][Sar][hPhe(3-Cl-4-CF3)]L[NMeAib]L[NMedβ3hAla][NMeL]I[NMeA])) | 100
CCCOC[C@H]1C(=O)N(C)CC(=O)N[C@@H](CCc2ccc(C(F)(F)F)c(Cl)c2)C(=O)N(CCOCC(C)(C)O)CC(=O)NC2(CCCC2)C(=O)N(C)[C@@H]([C@@H](C)CC)C(=O)N(C)[C@H](C)CC(=O)N(C)[C@@H](CC(C)C)C(=O)N[C@@H]([C@@H](C)CC)C(=O)N(C)[C@@H](C)C(=O)N2CC[C@H]2C(=O)N1C [Compound 2027] (cyclo([Ac5c][NMeI][NMedβ3hAla][NMeL]I[NMeA][Aze][NMeS](Propyl)[Sar][hPhe(3-Cl-4-CF3)][X70])) | 110
CC[C@H](C)[C@@H]1NC(=O)[C@H](CC(C)C)N(C)C(=O)C[C@@H](C)NC(=O)[C@H](C2CCCC2)N(C)C(=O)C2(CCCC2)NC(=O)[C@@H]2CCCN2C(=O)[C@H](CCc2ccc(C(F)(F)F)c(Cl)c2)NC(=O)[C@@H](C)N(C)C(=O)[C@H](CC2CCCCC2)N(C)C(=O)CN(C)C(=O)CN(C)C1=O [Compound 1530] (cyclo([Ac5c][NMeGly(cPent)][d(β3hA)][NMeL]I[Sar][Sar][NMeCha][dNMeA][hPhe(3-Cl-4-CF3)]P)) | 130
CC[C@H](C)[C@@H]1NC(=O)[C@H](C)N(C)C(=O)C[C@@H](C(=O)N2CCCC2)NC(=O)[C@H](CC(C)C)N(C)C(=O)[C@H](COCC(=O)NC(C)(C)C)NC(=O)[C@H](CC(C)C)NC(=O)[C@H](CCc2ccc(C(F)(F)F)cc2)NC(=O)CN(C)C(=O)[C@H](Cc2ccc(Cl)cc2)N(C)C(=O)CN(C)C(=O)CN(C)C1=O [Compound 53] ([NMeA]I[Sar][Sar][NMePhe(4-Cl)][Sar][hPhe(4-CF3)]LS(CH2CONHtBu)[NMeL]D-Pyrrolidide; lactam N-11) | 120

Source: US12371454B2, “Cyclic peptide compound having Kras inhibitory action” (priority 2019, dated 2025)
